SMILES strings stand for the structures. Where a name gives a salt, the structure may show the parent alone. Read-outs that look alike come from different tables or passages of the source.

The subject of one experiment is CAD5 cells. The format is cell-based.
The next experiment relates to Hela Cells. Description: Cellular ER stress model (tunicamycin, WST-8 cell viability). Particulars: for AntiERStress (% Cell Survival): HeLa cells, tunicamycin 48 hours, WST-8; for viability at 2.5 µM: Homo sapiens, HeLa, 48 h. (Formazan colour is commonly taken as a measure of viable cells.)
[1] abbreviates: read-out: % Cell Survival Cmpd(2.5 μM) + Tuni, Hela cells, compound 2.5 μM + tunicamycin, WST-8 viability 48 hours after tunicamycin treatment.
[2] abbreviates: read-out: Compounds ERS (vs Tn), ERS activity vs Tuni = % cell survival (compound)/% cell survival (tunicamycin), compound 2.5 μM.

For the compound `N=C(N)N/N=C/c1cccc(Cl)c1Cl` [BC2-7-1, (E)-2-(2,3-dichlorobenzylidene)hydrazinecarboximidamide acetate], in the experiment on CAD5 cells, the 1/Elispot is reported as 1.00, the “AntiPrion (Number of Cells × 10^4)” value is recorded as 3 × 10^4, the “EliSpot (Spots/10000 Cells)” value came to 1300 Spots/10000 Cells and the “Elispot (vs PC)” value turned out to be 1.00. For the same compound, the “AntiERStress (% Cell Survival)” value with Hela Cells worked out at 100.0136 % Cell Survival. Further, in the experiment with Hela Cells (setting [1]), the viability at 2.5 µM was 66.7%. In the experiment with Hela Cells (setting [2]), the viability at 2.5 µM was 160%.
Consider `N=C(N)Nn1ccnc1-c1c(Cl)cccc1Cl` [BC1-267-2, 1-(2-(2,6-dichlorophenyl)-1H-imidazol-1-yl)guanidine], for which, in the experiment on CAD5 cells, the 1/Elispot was found to be 1.00, the “AntiPrion (Number of Cells × 10^4)” value is recorded as 18 × 10^4, the “EliSpot (Spots/10000 Cells)” value worked out at 1300 Spots/10000 Cells and the “Elispot (vs PC)” value is given as 1.00. Besides, the “AntiERStress (% Cell Survival)” value with Hela Cells is on record as 64.26 % Cell Survival. Moreover, in the experiment with Hela Cells (setting [1]), the viability at 2.5 µM was 42.3%. The viability at 2.5 µM in the experiment with Hela Cells (setting [2]) is 102%.
With `N=C(N)N/N=C/c1c(F)cccc1Cl` [BC2-5-1, (E)-2-(2-chloro-6-fluorobenzylidene)hydrazinecarboximidamide acetate], in the experiment with CAD5 cells, the 1/Elispot came out at 1.63, the “AntiPrion (Number of Cells × 10^4)” value is listed as 34 × 10^4, the “EliSpot (Spots/10000 Cells)” value is 800 Spots/10000 Cells and the “Elispot (vs PC)” value was 0.62. For the same compound, the “AntiERStress (% Cell Survival)” value with Hela Cells is on record as 104.9813 % Cell Survival.
With `N=C(N)Nc1c(Cl)cccc1Cl` [BC1-256-2, 1-(2,6-dichlorophenyl)guanidine], in the experiment with CAD5 cells, the 1/Elispot was determined as 1.44, the “AntiPrion (Number of Cells × 10^4)” value is 32 × 10^4, the “EliSpot (Spots/10000 Cells)” value amounted to 900 Spots/10000 Cells and the “Elispot (vs PC)” value came out at 0.69. The “AntiERStress (% Cell Survival)” value in the experiment on Hela Cells was determined as 54.77 % Cell Survival.
In the same order, the values of `C/C(=N\NC(=N)N)c1c(Cl)cccc1Cl` [BC1-259-2, (E)-2-(1-(2,6-dichlorophenyl)ethylidene)hydrazinecarboximidamide] are 1.63, 26 × 10^4, 800 Spots/10000 Cells, 0.62 and 62.87 % Cell Survival.
In the same order, the values of `N=C(N)N/N=C/c1ccccc1F` [BC2-11-1, (E)-2-(2-fluorobenzylidene)hydrazinecarboximidamide acetate] are 1.63, 38 × 10^4, 800 Spots/10000 Cells, 0.62 and 52.43 % Cell Survival.
In the same order, the values of `N=C(N)N/N=C/c1c(Cl)cc(O)cc1Cl` [BC1-167-1, (E)-2-(2,6-dichloro-4-hydroxybenzylidene)hydrazinecarboximidamide acetate] are 0.87, 9 × 10^4, 1500 Spots/10000 Cells, 1.15 and 45.93 % Cell Survival.
For the compound `N=C(N)N/N=C/c1ccc(Cl)cc1` [BC2-13-1, (E)-2-(4-chlorobenzylidene)hydrazinecarboximidamide acetate], in the experiment with CAD5 cells, the 1/Elispot stood at 0.72, the “AntiPrion (Number of Cells × 10^4)” value was 9 × 10^4, the “EliSpot (Spots/10000 Cells)” value is 1800 Spots/10000 Cells and the “Elispot (vs PC)” value was 1.38. For the same compound, the “AntiERStress (% Cell Survival)” value with Hela Cells turned out to be 68.97 % Cell Survival.
With `Clc1cc(Cl)cc(NC2=NCCN2)c1` [BC1-242-2, N-(3,5-dichlorophenyl)-4,5-dihydro-1H-imidazol-2-amine], in the experiment on CAD5 cells, the 1/Elispot is 1.86, the “AntiPrion (Number of Cells × 10^4)” value is given as 50 × 10^4, the “EliSpot (Spots/10000 Cells)” value came out at 700 Spots/10000 Cells and the “Elispot (vs PC)” value is listed as 0.54. The “AntiERStress (% Cell Survival)” value in the experiment on Hela Cells stood at 57.56 % Cell Survival.
In the same order, the values of `N=C(N)NCCc1c(Cl)cccc1Cl` [BC1-252-2, 1-(2,6-dichlorophenethyl)guanidine] are 0.72, 8 × 10^4, 1800 Spots/10000 Cells, 1.38 and 49.49 % Cell Survival.
Turning to `N=C(N)N/N=C/c1c(I)cccc1I` [BC2-55-2, (E)-2-(2,6-diiodobenzylidene)hydrazinecarboximidamide], in the experiment on CAD5 cells, the 1/Elispot is listed as 1.00, the “AntiPrion (Number of Cells × 10^4)” value was 4 × 10^4, the “EliSpot (Spots/10000 Cells)” value was 1300 Spots/10000 Cells and the “Elispot (vs PC)” value was 1.00. Further, in the experiment with Hela Cells, the “AntiERStress (% Cell Survival)” value came out at 70.69 % Cell Survival.
For the compound `N=C(N)N/N=C\c1c(Cl)cc(O)cc1Cl` [BC1-171-1], in the experiment with CAD5 cells, the 1/Elispot is reported as 1.00, the “AntiPrion (Number of Cells × 10^4)” value is 16 × 10^4, the “EliSpot (Spots/10000 Cells)” value turned out to be 1300 Spots/10000 Cells and the “Elispot (vs PC)” value was 1.00. The “AntiERStress (% Cell Survival)” value with Hela Cells worked out at 52.54 % Cell Survival.
Turning to `Clc1cccc(Cl)c1CC1=NCCCN1` [JM2-271-2, 2-(2,6-dichlorobenzyl)-1,4,5,6-tetrahydropyrimidine], the viability at 2.5 µM is 32.3% with Hela Cells (setting [1]) and 123% in the experiment with Hela Cells (setting [2]).
Turning to `Cc1cccc(C)c1/C=N/NC(N)=S` [JM1-121-2, (E)-2-(2,6-dimethylbenzylidene)hydrazine-1-carbothioamide], the viability at 2.5 µM in the experiment with Hela Cells (setting [1]) worked out at 23.4%; in the experiment on Hela Cells (setting [2]), 34%.
Taken in the same sequence, the figures for `Fc1cccc(F)c1/C=N/NC1=NCCN1` [JM2-103-2, (E)-2-(2-(2,6-difluorobenzylidene)hydrazinyl)-4,5-dihydro-1H-imidazole hydrochloride] were 48.7% and 105%.
In the case of `CC/C(=N\NC(=N)N)c1cccc(Cl)c1` [JM1-257-2, (E)-2-(1-(3-chlorophenyl)propylidene)hydrazine-1-carboximidamide], the viability at 2.5 µM turned out to be 34.6% in the experiment on Hela Cells (setting [1]) and 50% in the experiment with Hela Cells (setting [2]).
Taken in the same sequence, the figures for `CNC(=N)N/N=C/c1c(Cl)cccc1Cl` [JM2-171-2, (E)-2-(2,6-dichlorobenzylidene)-N-methylhydrazine-1-carboximidamide hydroiodide] were 67% and 212%.
In the same order, the values of `N=C(N)N/N=C/c1ccccc1O` [JM3-17-2, (E)-2-(2-hydroxybenzylidene)hydrazine-1-carboximidamide acetate] are 28.7% and 109%.
As for `N=C(N)N/N=C/c1c(Cl)cc(OCc2ccccc2)cc1Cl` [JM2-195-2, (E)-2-(4-(benzyloxy)-2,6-dichlorobenzylidene)hydrazine-1-carboximidamide acetate], the values for the viability at 2.5 µM in the experiment on Hela Cells (setting [1]) and in the experiment on Hela Cells (setting [2]) were 24.1% and 76%, respectively.
Taken in the same sequence, the figures for `Cc1[nH]c(N/N=C/c2ccccc2Cl)nc(=O)c1C` [JM3-213-2, (E)-2-(2-(2-chlorobenzylidene)hydrazinyl)-5,6-dimethylpyrimidin-4(1H)-one] were 22.8% and 119%.
In the same order, the values of `Brc1ccccc1/C=N/NC1=NCCN1` [JM2-191-2, (E)-2-(2-(2-bromobenzylidene)hydrazinyl)-4,5-dihydro-1H-imidazole hydrochloride] are 39.5% and 125%.
Taken in the same sequence, the figures for `Cc1[nH]c(N/N=C/c2c(Cl)ccc(Cl)c2Cl)nc(=O)c1C` [JM3-205-2, (E)-5,6-dimethyl-2-(2-(2,3,6-trichlorobenzylidene)hydrazinyl)pyrimidin-4(1H)-one] were 20.7% and 108%.
As for `Clc1cccc(Cl)c1/C=N/NC1=NCCCN1` [JM2-255-2, (E)-2-(2-(2,6-dichlorobenzylidene)hydrazinyl)-1,4,5,6-tetrahydropyrimidine hydrochloride], the viability at 2.5 µM with Hela Cells (setting [1]) is 63.8%; in the experiment with Hela Cells (setting [2]) it was 201%.
In the same order, the values of `COc1cc(Cl)c(/C=N/NC(=N)N)c(Cl)c1` [JM2-63-2, (E)-2-(2,6-dichloro-4-methoxybenzylidene)hydrazine-1-carboximidamide] are 44.6% and 65%.
In the same order, the values of `Cc1cccc(Cl)c1/C=N/NC1=NCCCN1` [JM2-265-2, (E)-2-(2-(2-chloro-6-methylbenzylidene)hydrazinyl)-1,4,5,6-tetrahydropyrimidine hydrochloride] are 47.2% and 179%.
Turning to `Clc1cccc(Cl)c1NC1=NCCN1` [JM2-97-2, N-(2,6-dichlorophenyl)-4,5-dihydro-1H-imidazol-2-amine hydrochloride], the results for the viability at 2.5 µM in the experiment on Hela Cells (read-out: % Cell Survival Cmpd(2.5 μM) + Tuni) and in the experiment on Hela Cells (read-out: Compounds ERS (vs Tn)) were 63.1% and 147%, respectively.
With `NC(=O)N/N=C/c1ccccc1F` [JM3-221-2, (E)-2-(2-fluorobenzylidene)hydrazine-1-carboxamide hydrochloride], the results for the viability at 2.5 µM in the experiment with Hela Cells (setting [1]) and in the experiment on Hela Cells (setting [2]) were 28.9% and 122%, respectively.
Turning to `N=C(N)NC(=O)Cc1c(Cl)cccc1Cl` [JM2-287-2, N-carbamimidoyl-2-(2,6-dichlorophenyl)acetamide hydrochloride], the viability at 2.5 µM with Hela Cells (setting [1]) amounted to 33%; in the experiment with Hela Cells (setting [2]), 111%.
Consider `O=C(/C=C/c1ccccc1)NC(NC(=S)Nc1ccc(Cl)cc1)C(Cl)(Cl)Cl` (centres unmarked) [Sal003], for which the “Compounds ERS (vs Tn)” value in the experiment with Hela Cells (ERS activity vs Tuni = % cell survival (compound)/% cell survival (tunicamycin), compound 2.5 μM) turned out to be 1.03. The “% Cell Survival Cmpd(2.5 μM) + Tuni” value in the experiment on Hela Cells (Hela cells, compound 2.5 μM + tunicamycin, WST-8 viability 48 hours after tunicamycin treatment) was found to be 33.17%.

Values taken from patent US12006294B2, “Therapeutic compounds” (REGENTS OF THE UNIVERSITY OF MINNESOTA, priority 2017, dated 2024).
